pIC50: −log10 of the molar value. “Also recorded” adds a separate entry of the source. Blank lines part the entries; values can stand above or below the molecule they belong to.
Legend:
HT22 cells = assay: Whole genome bisulfite sequencing in HT22 cells; assay type: cell-based, mouse; conditions: 10 μM, 24 hours
Method: Whole genome bisulfite sequencing in HT22 cells was performed. […] Generally, the genome was broken into windows each containing 25 CpGs, and an analysis was performed to determine differentially methylated regions. […] Additionally, the differentially methylated regions (DMRs) were highly associated with DMRs detected for those Tet gene deficient cells/tissue.
HT-22 cells were provided by David Schubert at the Salk Institute (San Diego, Calif.). Cells were cultured in Dulbecco's Modified Eagle Medium (Life Technologies, Carlsbad, Calif.) supplemented with 10% FBS, 100 U/ml penicillin, and 100 μg/ml streptomycin (Life Technologies, Carlsbad, Calif.) at 37° C. and 5% CO2. […]
Cells were lysed and gDNA was extracted (Qiagen, DNeasy), bisulfite converted (Accel-NGS Methyl-Seq DNA Library, Swift), and sequenced (Hudson Alpha Discovery) on the Illumina platform (HiSeq_X10, paired end, 150 bp, 500 million reads per sample). Reads were QC'd by FastQC (v0.11.5), filtered by quality (average quality score <20), Illumina adapters removed, and sequencing primers trimmed using Trim_Galore! […] The filtered and trimmed reads were then mapped to the mouse genome (mm10), deduplicated, and CpG methylation levels extracted using Bismark (v0.19.0). Altered CpG methylation was determined by dividing the mouse genome into ˜850,000 windows, each containing 25 CpG sites. […]

DNMT3a = assay: Inhibitory assay for DNMT3a; assay type: biochemical; conditions: concentration of 500 μM
TET1 = target: T1, TET1 (Homo sapiens, UniProt Q8NFU7); assay: Chemiluminescence ELISA of TET1-mediated oxidation of methylated DNA; assay type: biochemical; conditions: for TET1 inhibition (in words): compound at 100 μM in ELISA
T1 construct: purchased Bioscience 50651
Method: To determine whether cytosine analogs inhibited TET-mediated oxidation of methylated DNA, the amount of hydroxymethylcytosine in reactions containing TET enzyme alone or TET enzyme and a cytosine analog were determined using chemiluminescence ELISA assays.
Procedure adapted from manual (Bioscience; TET1: 50651, TET2: 50652). Prepare TBST buffer (1× TBS, pH 8.0, containing 0.05% Tween-20). Dilute 4.0× TET Assay Buffer (TAB) to 1.5× TAB and 1.0× TAB evenly with diluted water. Thaw and dilute (5.0 ng/μl for TET1 and 10 ng/μl for TET2) TET enzyme from kit with 1.0× TAB. Dilute primary antibody 100-fold with blocking buffer. Diluted secondary antibody 1000-fold with blocking buffer. Dilute DMSO inhibitor solutions with 1.0× TAB to wanted concentration (ensure solutions are 5% DMSO). To 96-well plate provided, add 200 μl TBST buffer to each well and incubate at room temperature for 15 min. Remove TBST buffer and add 20 μl 1.5× TAB, 10 μl inhibitor solution, 20 μl diluted TET to each well. For controls, add 10 μl 5% DMSO solution and 20 μl 1.0× TAB. Incubate at room temperature for 2 h. Remove reaction solution and wash 3× with TBST buffer (200, 200, and 100 μl). Add 100 μl […] diluted primary antibody and shake at room temperature for 1 h. Remove diluted primary antibody and wash 3× with TBST buffer (200, 200, and 100 μl). Add 100 μl blocking buffer to each well and shake at room temperature for 10 min. Remove blocking buffer. Add 100 μl diluted secondary antibody. Shake at room temperature for 30 min. Remove diluted secondary antibody and wash 3× with TBST buffer (200, 200, and 100 μl). Add 100 μl blocking buffer to each well and shake at room temperature for 10 min. Remove blocking buffer. Combine horseradish peroxidase (HRP) substrate A and HRP substrate B at 1:1 ratio. Add 100 μl of HRP solution to each well. Immediately, read chemiluminescence (BioTek Synergy 2 plate reader).

TET2 = target: T2, TET2 (Homo sapiens, UniProt Q6N021); assay: Chemiluminescence ELISA of TET2-mediated oxidation of methylated DNA; assay type: biochemical; conditions: dose-response
T2 construct: purchased Bioscience 50652
Method: Procedure adapted from manual (Bioscience; TET1: 50651, TET2: 50652). Prepare TBST buffer (1× TBS, pH 8.0, containing 0.05% Tween-20). […] Dilute primary antibody 100-fold with blocking buffer. Diluted secondary antibody 1000-fold with blocking buffer. […] To 96-well plate provided, add 200 μl TBST buffer to each well and incubate at room temperature for 15 min. Remove TBST buffer and add 20 μl 1.5× TAB, 10 μl inhibitor solution, 20 μl diluted TET to each well. For controls, add 10 μl 5% DMSO solution and 20 μl 1.0× TAB. Incubate at room temperature for 2 h. Remove reaction solution and wash 3× with TBST buffer (200, 200, and 100 μl). Add 100 μl blocking buffer 53 μl diluted primary antibody and shake at room temperature for 1 h. Remove diluted primary antibody and wash 3× with TBST buffer (200, 200, and 100 μl). Add 100 μl blocking buffer to each well and shake at room temperature for 10 min. Remove blocking buffer. Add 100 μl diluted secondary antibody. Shake at room temperature for 30 min. […] Immediately, read chemiluminescence (BioTek Synergy 2 plate reader).

T1 sequence (Q8NFU7 whole entry): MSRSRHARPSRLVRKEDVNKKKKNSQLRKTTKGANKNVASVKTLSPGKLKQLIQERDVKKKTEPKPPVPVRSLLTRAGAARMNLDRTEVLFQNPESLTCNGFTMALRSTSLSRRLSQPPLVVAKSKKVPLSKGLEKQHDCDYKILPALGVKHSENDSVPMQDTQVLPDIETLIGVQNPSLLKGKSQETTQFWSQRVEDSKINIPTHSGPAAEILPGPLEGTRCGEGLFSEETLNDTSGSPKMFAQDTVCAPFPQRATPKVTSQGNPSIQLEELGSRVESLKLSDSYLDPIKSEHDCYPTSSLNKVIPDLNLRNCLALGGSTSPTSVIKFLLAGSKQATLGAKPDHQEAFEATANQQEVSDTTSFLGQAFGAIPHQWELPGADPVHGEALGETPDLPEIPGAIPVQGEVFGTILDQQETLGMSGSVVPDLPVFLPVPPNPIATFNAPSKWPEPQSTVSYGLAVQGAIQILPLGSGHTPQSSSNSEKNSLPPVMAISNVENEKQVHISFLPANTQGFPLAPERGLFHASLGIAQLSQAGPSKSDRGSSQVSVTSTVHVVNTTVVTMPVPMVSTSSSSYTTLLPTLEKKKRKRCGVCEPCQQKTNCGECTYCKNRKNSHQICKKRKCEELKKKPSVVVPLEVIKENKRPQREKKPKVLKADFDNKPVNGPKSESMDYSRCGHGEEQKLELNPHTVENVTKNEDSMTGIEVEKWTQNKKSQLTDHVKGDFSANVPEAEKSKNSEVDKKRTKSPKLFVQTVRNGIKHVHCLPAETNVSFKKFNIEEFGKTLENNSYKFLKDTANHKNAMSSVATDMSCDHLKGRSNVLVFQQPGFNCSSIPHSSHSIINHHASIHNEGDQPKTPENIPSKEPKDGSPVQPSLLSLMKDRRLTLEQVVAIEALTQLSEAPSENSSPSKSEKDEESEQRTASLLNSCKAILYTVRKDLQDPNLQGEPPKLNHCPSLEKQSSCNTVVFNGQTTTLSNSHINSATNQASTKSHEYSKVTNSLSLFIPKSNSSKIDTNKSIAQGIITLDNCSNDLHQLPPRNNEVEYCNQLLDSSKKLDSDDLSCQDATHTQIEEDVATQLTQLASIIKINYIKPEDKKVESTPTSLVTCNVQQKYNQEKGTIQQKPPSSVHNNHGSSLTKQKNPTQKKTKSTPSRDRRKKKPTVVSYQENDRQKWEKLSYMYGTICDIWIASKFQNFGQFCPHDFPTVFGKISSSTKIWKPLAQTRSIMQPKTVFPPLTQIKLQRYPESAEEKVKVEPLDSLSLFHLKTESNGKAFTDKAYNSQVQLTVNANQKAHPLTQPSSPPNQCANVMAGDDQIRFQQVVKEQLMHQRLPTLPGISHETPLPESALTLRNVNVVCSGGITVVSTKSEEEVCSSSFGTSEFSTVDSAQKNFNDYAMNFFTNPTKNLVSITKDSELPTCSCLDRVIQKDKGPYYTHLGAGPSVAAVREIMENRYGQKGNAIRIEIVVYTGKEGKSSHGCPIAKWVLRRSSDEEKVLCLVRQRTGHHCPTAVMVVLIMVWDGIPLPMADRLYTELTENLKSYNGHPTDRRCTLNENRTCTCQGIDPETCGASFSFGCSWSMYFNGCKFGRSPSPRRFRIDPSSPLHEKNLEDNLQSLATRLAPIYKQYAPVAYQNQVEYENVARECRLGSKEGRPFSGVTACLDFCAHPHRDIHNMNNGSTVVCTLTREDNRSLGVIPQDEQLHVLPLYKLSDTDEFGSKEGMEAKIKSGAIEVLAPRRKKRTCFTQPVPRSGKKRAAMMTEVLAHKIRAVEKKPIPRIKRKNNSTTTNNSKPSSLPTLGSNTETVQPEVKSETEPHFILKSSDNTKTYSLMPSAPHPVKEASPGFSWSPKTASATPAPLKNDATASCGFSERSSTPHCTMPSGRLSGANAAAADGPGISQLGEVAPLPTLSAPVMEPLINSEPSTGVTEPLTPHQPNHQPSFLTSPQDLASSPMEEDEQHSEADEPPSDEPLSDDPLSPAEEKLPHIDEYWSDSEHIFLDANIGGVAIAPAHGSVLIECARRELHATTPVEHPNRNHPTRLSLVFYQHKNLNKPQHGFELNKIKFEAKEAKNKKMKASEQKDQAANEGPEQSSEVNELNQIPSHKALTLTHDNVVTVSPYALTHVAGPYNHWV

TET1 inhibition (in words) (TET1): significantly enhanced activity
TET1 inhibition (in words) (TET1; listed as 3-biphenyl): significantly increased TET1 inhibition
pIC50 (TET1; dose-response, N=3): 4.48
Compound: Nc1nc(=O)n(-c2cccc(-c3ccccc3)c2)cc1Cl [Bobcat339, 1-([1,1′-biphenyl]-3-yl)-4-amino-5-chloropyrimidin-2(1H)-one]
differentially methylated regions (windows of 25 CpGs) (HT22 cells): A thousand such regions were observed, most of which are hypermethylated
global CpG methylation (HT22 cells): significant change in global CpG methylation
inhibition of DNMT3a (DNMT3a): failing to show substantial inhibition; also recorded: but not DNMT3a

pIC50 (TET2): 4.01
Compound: Nc1nc(=O)n(-c2ccccc2)cc1Cl [Bobcat216, 4-amino-5-chloro-1-phenylpyrimidin-2(1H)-one]

TET1 inhibition (in words) (TET1): significantly reduced TET1 inhibition
Compound: Nc1nc(=O)n(-c2ccc(-c3ccccc3)cc2)cc1Cl [Bobcat219, 1-([1,1′-biphenyl]-4-yl)-4-amino-5-chloropyrimidin-2(1H)-one]

TET1 inhibition (in words) (TET1): significantly reduced TET1 inhibition
Compound: Nc1nc(=O)n(-c2ccccc2-c2ccccc2)cc1Cl [Bobcat337, 1-([1,1′-biphenyl]-2-yl)-4-amino-5-chloropyrimidin-2(1H)-one]

Reference: US11504369B2, “Cytosine-based TET enzyme inhibitors” (President and Trustees of Bates College, priority 2019, dated 2022)
